Source: patent US11090304B2 (Amgen Inc., priority 2018, dated 2021)

target: GDP-bound KRAS protein (aa 1-169), containing both G12C and C118A amino acid substitutions (Homo sapiens, UniProt P01116, C118A/G12C); experiment: Coupled nucleotide exchange assay (SOS-mediated, AlphaScreen); type: biochemical; conditions: 5 min compound pre-incubation
Sequence (P01116 1-169 isoform P01116-2 G12C/C118A): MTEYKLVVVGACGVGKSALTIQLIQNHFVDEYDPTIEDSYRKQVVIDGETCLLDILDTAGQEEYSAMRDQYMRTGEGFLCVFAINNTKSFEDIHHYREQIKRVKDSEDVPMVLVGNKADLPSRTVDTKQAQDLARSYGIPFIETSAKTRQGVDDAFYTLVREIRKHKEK

Coupled exchange IC50 (5 min)	Structure (SMILES)
2.26 | nda μM	C=CC(=O)N1CCN(c2nc(=O)n(-c3nccnc3C(C)C)c3nc(-c4ccccc4F)c(Cl)cc23)[C@@H](C)C1 [Example 54-20]
32.1 | nda μM	C=CC(=O)N1CCN(c2nc(=O)n(-c3ncccc3C3(C#N)CC3)c3nc(-c4ccccc4F)c(Cl)cc23)[C@@H](C)C1 [Example 54-39, 1-(2-(6-chloro-7-(2-fluorophenyl)-4-((2S)-2-methyl-4-(2-propenoyl)-1-piperazinyl)-2-oxopyrido[2,3-d]pyrimidin-1(2H)-yl)-3-pyridinyl) cyclopropane carbonitrile]
3.9 | nda μM	C=CC(=O)N1CCN(c2nc(=O)n(-c3ccccc3C(C)C)c3nc(-c4c(C)noc4C)c(Cl)cc23)[C@@H](C)C1 [Example 54-44, 6-chloro-7-(3,5-dimethyl-1,2-oxazol-4-yl)-4-((2S)-2-methyl-4-(2-propenoyl)-1-piperazinyl)-1-(2-(2-propanyl)phenyl)pyrido [2,3-d]pyrimidin-2(1H)-one]
7.24 | nda μM	C=CC(=O)N1CCN(c2nc(=O)n(-c3ccccc3C(C)C)c3nc(-c4ccc[nH]4)c(Cl)cc23)[C@@H](C)C1 [Example 54-46, 6-chloro-4-((2S)-2-methyl-4-(2-propenoyl)-1-piperazinyl)-1-(2-(2-propanyl)phenyl)-7-(1H-pyrrol-2-yl)pyrido[2,3-d]pyrimidin-2(1H)-one]
10.7 | nda μM	C=CC(=O)N1CCN(c2nc(=O)n(-c3ccccc3C(C)C)c3nc(-c4ccco4)c(Cl)cc23)[C@@H](C)C1 [Example 54-47, 6-chloro-7-(2-furanyl)-4-((2S)-2-methyl-4-(2-propenoyl)-1-piperazinyl)-1-(2-(2-propanyl)phenyl)pyrido [2,3-d]pyrimidin-2(1H)-one]
2.49 | nda μM	C=CC(=O)N1CCN(c2nc(=O)n(-c3ccccc3S(C)(=O)=O)c3nc(-c4c(O)cccc4F)c(Cl)cc23)[C@@H](C)C1 [Example 54-56-1]
3.44 | nda μM	C=CC(=O)N1CCN(c2nc(=O)n(-c3ccccc3C#N)c3nc(-c4c(O)cccc4F)c(Cl)cc23)[C@@H](C)C1 [Example 54-58, 2-(6-chloro-7-(2-fluoro-6-hydroxyphenyl)-4-((2S)-2-methyl-4-(2-propenoyl)-1-piperazinyl)-2-oxopyrido[2,3-d]pyrimidin-1(2H)-yl)benzonitrile]
1.08 | nda μM	C=CC(=O)N1CCN(c2nc(=O)n(-c3ccccc3C(C)C)c3nc(C4=CCCCC4)c(Cl)cc23)[C@@H](C)C1 [Example 54-75, 6-chloro-7-(1-cyclohexen-1-yl)-4-((2S)-2-methyl-4-(2-propenoyl)-1-piperazinyl)-1-(2-(2-propanyl)phenyl)pyrido [2,3-d]pyrimidin-2(1H)-one]
5.48 | nda μM	C=CC(=O)N1CCN(c2nc(=O)n(-c3ccccc3C(C)C)c3nc(C4=CCCOC4)c(Cl)cc23)[C@@H](C)C1 [Example 54-76, 6-chloro-7-(5,6-dihydro-2H-pyran-3-yl)-4-((2S)-2-methyl-4-(2-propenoyl)-1-piperazinyl)-1-(2-(2-propanyl)phenyl)pyrido [2,3-d]pyrimidin-2(1H)-one]
1.27 | nda μM	C=CC(=O)N1CCN(c2nc(=O)n(-c3ccccc3C(C)C)c3nc(-c4ncccc4F)c(Cl)cc23)[C@@H](C)C1 [Example 54-92, 6-chloro-7-(3-fluoro-2-pyridinyl)-4-((2S)-2-methyl-4-(2-propenoyl)-1-piperazinyl)-1-(2-(2-propanyl)phenyl)pyrido [2,3-d]pyrimidin-2(1H)-one]
1.43 | nda μM	C=CC(=O)N1CCN(c2nc(=O)n(-c3ccccc3C(C)C)c3nc(-c4ncc(F)cc4F)c(Cl)cc23)[C@@H](C)C1 [Example 54-93, 6-chloro-7-(3,5-difluoro-2-pyridinyl)-4-((2S)-2-methyl-4-(2-propenoyl)-1-piperazinyl)-1-(2-(2-propanyl)phenyl)pyrido [2,3-d]pyrimidin-2(1H)-one]
1.19 | nda μM	C=CC(=O)N1CCN(c2nc(=O)n(-c3ccccc3C(C)C)c3nc(-c4ncccc4Cl)c(Cl)cc23)[C@@H](C)C1 [Example 54-94, 6-chloro-7-(3-chloro-2-pyridinyl)-4-((2S)-2-methyl-4-(2-propenoyl)-1-piperazinyl)-1-(2-(2-propanyl)phenyl)pyrido [2,3-d]pyrimidin-2(1H)-one]
0.355 | nda μM	C=CC(=O)N1CCN(c2nc(=O)n(-c3c[nH]cc3C(C)C)c3nc(-c4ccccc4F)c(Cl)cc23)[C@@H](C)C1 [Example 54-109, 6-chloro-7-(2-fluorophenyl)-4-((2S)-2-methyl-4-(2-propenoyl)-1-piperazinyl)-1-(4-(2-propanyl)-1H-pyrrol-3-yl)pyrido[2,3-d]pyrimidin-2(1H)-one]

Continued, molecule first:

Structure (SMILES)	Coupled exchange IC50 (5 min)
C=CC(=O)N1CCN(c2nc(CN(C)C)c(-c3ccccc3C(C)C)c3nc(-c4ccccc4F)c(Cl)cc23)CC1 [86-2, 1-(4-(3-chloro-7-((dimethylamino)methyl)-2-(2-fluorophenyl)-8-(2-(2-propanyl)phenyl)-1,6-naphthyridin-5-yl)-1-piperazinyl)-2-propen-1-one]	6.6 | nda μM
C=CC(=O)N1CCN(c2nc(=O)n(CC(F)(F)F)c3nc(-c4c(O)cccc4F)c(Cl)cc23)[C@@H](C)C1 [Example 54-7, 6-chloro-7-(2-fluoro-6-hydroxyphenyl)-4-((2S)-2-methyl-4-(2-propenoyl)-1-piperazinyl)-1-(2,2,2-trifluoroethyl) pyrido [2,3-d]pyrimidin-2(1H)-one]	1.75 | nda μM
C=CC(=O)N1CCN(c2nc(=O)n(-c3nc(C)ccc3C(C)C)c3nc(-c4c(O)cccc4F)c(Cl)cc23)[C@@H](C)C1 [Example 54-14, 6-chloro-7-(2-fluoro-6-hydroxyphenyl)-1-(6-methyl-3-(2-propanyl)-2-pyridinyl)-4-((2S)-2-methyl-4-(2-propenoyl)-1-piperazinyl) pyrido[2,3-d]pyrimidin-2(1H)-one]	12.4 | nda μM
C=CC(=O)N1CCN(c2nc(=O)n(-c3ccccc3CC#N)c3nc(-c4c(O)cccc4F)c(Cl)cc23)[C@@H](C)C1 [Example 54-19, (2-(6-chloro-7-(2-fluoro-6-hydroxyphenyl)-4-((2S)-2-methyl-4-(2-propenoyl)-1-piperazinyl)-2-oxopyrido[2,3-d]pyrimidin-1(2H)-yl)phenyl) acetonitrile]	12.2 | nda μM
C=CC(=O)N1CCN(c2nc(=O)n(-c3ncccc3C3(C#N)CC3)c3nc(-c4c(O)cccc4F)c(Cl)cc23)[C@@H](C)C1 [Example 54-40, 1-(2-(6-chloro-7-(2-fluoro-6-hydroxyphenyl)-4-((2S)-2-methyl-4-(2-propenoyl)-1-piperazinyl)-2-oxopyrido[2,3-d]pyrimidin-1(2H)-yl)-3-pyridinyl) cyclopropane carbonitrile]	21.3 | nda μM
C=CC(=O)N1CCN(c2nc(=O)n(-c3ccccc3OC(F)(F)F)c3nc(-c4c(O)cccc4F)c(Cl)cc23)[C@@H](C)C1 [Example 54-49, 6-chloro-7-(2-fluoro-6-hydroxyphenyl)-4-((2S)-2-methyl-4-(2-propenoyl)-1-piperazinyl)-1-(2-(trifluoromethoxy)phenyl) pyrido[2,3-d]pyrimidin-2(1H)-one]	5.65 | nda μM
C=CC(=O)N1C[C@@H]2C[C@H]1CN2c1nc(=O)n(-c2ccccc2C(C)C)c2nc(-c3c(O)cccc3F)c(Cl)cc12 [Example 54-50, 4-((1S,4S)-5-acryloyl-2,5-diazabicyclo [2.2.1]heptan-2-yl)-6-chloro-7-(2-fluoro-6-hydroxyphenyl)-1-(2-isopropylphenyl) pyrido [2,3-d]pyrimidin-2(1H)-one]	88.8 | nda μM
C=CC(=O)N1CCN(c2nc(=O)n(-c3ccccc3S(C)(=O)=O)c3nc(-c4c(O)cccc4F)c(Cl)cc23)[C@@H](C)C1 [Example 54-56, 6-chloro-7-(2-fluoro-6-hydroxyphenyl)-4-((2S)-2-methyl-4-(2-propenoyl)-1-piperazinyl)-1-(2-(methylsulfonyl)phenyl) pyrido[2,3-d]pyrimidin-2(1H)-one]	1.42 | nda μM
C=CC(=O)N1CCN(c2nc(=O)n(-c3c(OC)cccc3OC)c3nc(-c4ccccc4F)c(Cl)cc23)[C@@H](C)C1 [Example 54-68, 6-chloro-1-(2,6-dimethoxy-phenyl)-7-(2-fluorophenyl)-4-((2S)-2-methyl-4-(2-propenoyl)-1-piperazinyl) pyrido[2,3-d]pyrimidin-2(1H)-one]	4.65 | nda μM
C=CC(=O)N1CCN(c2nc(=O)n(-c3ccccc3C3(C)CC3)c3nc(Cl)c(Cl)cc23)[C@@H](C)C1 [Example 54-98]	5.45 | nda μM
C=CC(=O)N1CCN(c2nc(=O)n(-c3ccccc3N3CCOCC3)c3nc(-c4c(O)cccc4F)c(Cl)cc23)[C@@H](C)C1 [Example 54-100, 6-chloro-7-(2-fluoro-6-hydroxyphenyl)-4-((2S)-2-methyl-4-(2-propenoyl)-1-piperazinyl)-1-(2-(4-morpholinyl)phenyl) pyrido[2,3-d] pyrimidin-2(1H)-one]	2.51 | nda μM
C=CC(=O)N1CCN(c2nc(=O)n(-c3c(CC)n[nH]c3CC)c3nc(-c4ccccc4F)c(Cl)cc23)[C@@H](C)C1 [Example 54-106]	0.51 | nda μM
C=CC(=O)N1CCN(c2nc(=O)n(-c3c(C)ccnc3N(C)C)c3nc(-c4ccccc4F)c(Cl)cc23)[C@@H](C)C1 [Example 55-7]	0.806 | nda μM

same assay, conditions: 2 h compound pre-incubation

Coupled exchange IC50 (2 h)	Structure (SMILES)
nda | 7.97 μM	C=CC(=O)N1CCN(c2nc(=O)n(-c3c(CC)cccc3CC)c3nc(Oc4cccc(F)c4)c(Cl)cc23)[C@@H](C)C1 [Example 54-64, 6-chloro-1-(2,6-diethylphenyl)-7-(3-fluorophenoxy)-4-((2S)-2-methyl-4-(2-propenoyl)-1-piperazinyl) pyrido[2,3-d]pyrimidin-2(1H)-one]
